# Starred links: 1 amine or outer side, 2 acyl side, 3 side chain; linkers in the order of their positions; H or OH if unused. Positions of bridges follow the written chain, without caps; N, C: chain ends. Residues, ends and D or L forms follow the SMILES beside them. *: point of attachment. C20 diacid = O=C(O)CCCCCCCCCCCCCCCCCCC(=O)*; γGlu = O=C(O)[C@H](CCC(=O)[*:2])N[*:1]
# Experiments:
# [1] = tested on: food intake; assay: Assay (I) efficacy testing on appetite (food intake), ad libitum fed rat model; format: in vivo, Sprague Dawley (SD) rats
# Source text: In the following examples reference is made to the following Assays: • Assay (I)— Experimental protocol for efficacy testing on appetite using an ad libitum fed rat model • ASSAY (II)a—Functional assay—Human calcitonin and amylin receptor assay • ASSAY (II)b—Functional assay—Rat calcitonin and rat amylin receptor assays • ASSAY (III)—ThT fibrillation assays for the assessment of physical stability of protein formulations • ASSAY (IV)—Determination of solubility • ASSAY (V)—Determination of binding to the human amylin receptor • ASSAY (VI)—Determination of the binding to the rat amylin receptor • ASSAY (VII)—Determination of binding to the human calcitonin receptor • ASSAY (VIII)—Determination of binding to the rat calcitonin receptor • ASSAY (IX)—pK—Determination of T % in mini-pig • ASSAY (X)—pK—Determination of T % in rat ASSAY (I)—Experimental Protocol for Efficacy Testing on Appetite Using an Ad Libitum Fed Rat Model
# Sprague Dawley (SD) rats from Taconic Europe, Denmark are used for the experiments. The rats have a body weight 200-250 g at the start of experiment. The rats arrive at least 10-14 days before start of experiment to allow acclimatization to experimental settings. During this period the animals are handled at least 2 times. After arrival rats are housed individually for one week in a reversed light/dark phase (meaning that lights are off during daytime and on during nighttime) […]. Since rats are normally active and eat their major part of their daily food intake during the dark period, rats are dosed in the morning right before lights are turned off. This set-up results in the lowest data variation and highest test sensitivity. The experiment is conducted in the rats' home cages and rats have free access to food and water throughout the acclimatization period and the experiment period. Each dose of derivative is tested in a group of 5-8 rats. A vehicle group of 6-8 rats is included in each set of testing. Rats are dosed once according to body weight with a 0.01-3 mg/kg solution administered intraperitoneally (ip), orally (po) or subcutaneously (sc). The time of dosing is recorded for each group. After dosing, the rats are returned to their home cages, where they then have access to food and water. The food consumption is recorded individually continuously by on-line registration or manually every hour for 7 hours, and then after 24 h and sometimes 48 h. At the end of the experimental session, the animals are euthanised.
# The individual data are recorded in Microsoft excel sheets. Outliers are excluded after applying the Grubbs statistical evaluation test for outliers, and the result is presented graphically using the GraphPad Prism program.
# [2] = Assay (III) ThT fibrillation assay for physical stability; format: physicochemical
# How it was run: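 Freshly prepared formulations, pH-adjusted, with 1 μM ThT; four or eight replicates incubated at 37 °C under 960 rpm orbital shaking. Fluorescence (ex 444/em 485 nm) read every 20 min; […]. Peptide concentration measured by RP-HPLC before and after the run.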
Compound,Food intake reduction 0-24 h 3 nmol/kg (%) ([1]; 0-24 h),Food intake reduction 24-48 h 3 nmol/kg (%) ([1]; 24-48 h),ThT pH 4.0 lag time ([2]; Table 8) [h],ThT pH 4.0 lag time ([2]; ThT fibrillation assay) [h],ThT pH 4.0 lag time (h) ([2]; ThT fibrillation assay),"Food intake reduction 0-24 h 30 nmol/kg (%) ([1]; 0-24 h, 30 nmol/kg)","Food intake reduction 24-48 h 30 nmol/kg (%) ([1]; 24-48 h, 30 nmol/kg)"
"CC[C@H](C)[C@H](NC(=O)[C@@H]1CCCN1C(=O)CNC(=O)[C@H](Cc1ccccc1)NC(=O)[C@H](CC(N)=O)NC(=O)[C@H](CC(N)=O)NC(=O)[C@H](CO)NC(=O)[C@H](CO)NC(=O)[C@H](Cc1c[nH]cn1)NC(=O)[C@H](Cc1c[nH]cn1)NC(=O)[C@H](CC(C)C)NC(=O)[C@H](Cc1ccccc1)NC(=O)[C@H](CCC(=O)O)NC(=O)[C@H](C)NC(=O)[C@H](CC(C)C)NC(=O)[C@H](CCCNC(=N)N)NC(=O)[C@H](CCC(N)=O)NC(=O)[C@@H](NC(=O)[C@H](C)NC(=O)[C@@H]1CSSC[C@H](NC(=O)[C@H](Cc2c[nH]cn2)NC(=O)CC[C@H](NC(=O)CCCCCCCCCCCCCCCCCCC(=O)O)C(=O)O)C(=O)N[C@@H](CC(N)=O)C(=O)N[C@@H]([C@@H](C)O)C(=O)N[C@@H](C)C(=O)N[C@@H]([C@@H](C)O)C(=O)N1)[C@@H](C)O)C(=O)N[C@@H](CC(C)C)C(=O)N1CCC[C@H]1C(=O)N1CCC[C@H]1C(=O)N[C@H](C(=O)N[C@@H](CC(N)=O)C(=O)N[C@H](C(=O)NCC(=O)N[C@@H](CO)C(=O)N[C@@H](CC(N)=O)C(=O)N[C@H](C(=O)N1CCC[C@H]1C(N)=O)[C@@H](C)O)C(C)C)[C@@H](C)O [Example 84, N-alpha-[(S)-4-Carboxy-4-(19-carboxynonadecanoylamino)butyryl]-[His1,Glu14,His17,Pro37]-pramlintide] ({C20 diacid-γGlu}-HCNTATCATQRLAEFLHHSSNNFGPILPPTNVGSNTP-NH2; disulfide 2-7 (inferred); C-terminus assumed)",68,67,25.6,25.6,25.6,,
"CC[C@H](C)[C@H](NC(=O)[C@@H]1CCCN1C(=O)CNC(=O)[C@H](Cc1ccccc1)NC(=O)[C@H](CC(N)=O)NC(=O)[C@H](CC(N)=O)NC(=O)[C@H](CO)NC(=O)[C@H](CO)NC(=O)[C@H](Cc1c[nH]cn1)NC(=O)[C@H](Cc1c[nH]cn1)NC(=O)[C@H](CC(C)C)NC(=O)[C@H](Cc1ccccc1)NC(=O)[C@H](CCC(=O)O)NC(=O)[C@H](C)NC(=O)[C@H](CC(C)C)NC(=O)[C@H](CCCNC(=N)N)NC(=O)[C@H](CCC(N)=O)NC(=O)[C@@H](NC(=O)[C@H](C)NC(=O)[C@@H]1CSSC[C@H](NC(=O)[C@H](Cc2c[nH]cn2)NC(=O)[C@H](Cc2c[nH]cn2)NC(=O)[C@H](Cc2c[nH]cn2)NC(=O)CC[C@H](NC(=O)CCCCCCCCCCCCCCCCCCC(=O)O)C(=O)O)C(=O)N[C@@H](CC(N)=O)C(=O)N[C@@H]([C@@H](C)O)C(=O)N[C@@H](C)C(=O)N[C@@H]([C@@H](C)O)C(=O)N1)[C@@H](C)O)C(=O)N[C@@H](CC(C)C)C(=O)N1CCC[C@H]1C(=O)N1CCC[C@H]1C(=O)N[C@H](C(=O)N[C@@H](CC(N)=O)C(=O)N[C@H](C(=O)NCC(=O)N[C@@H](CO)C(=O)N[C@@H](CC(N)=O)C(=O)N[C@H](C(=O)N[C@@H](Cc1ccc(O)cc1)C(N)=O)[C@@H](C)O)C(C)C)[C@@H](C)O [Example 11, N-alpha-[(S)-4-Carboxy-4-(19-carboxynonadecanoylamino)butyryl]-His-His-[His1,Glu14,His17]-pramlintide] ({C20 diacid-γGlu}-HHHCNTATCATQRLAEFLHHSSNNFGPILPPTNVGSNTY-NH2; disulfide 4-9 (inferred))",,,,,7.4,87,92
"CC[C@H](C)[C@H](NC(=O)[C@@H]1CCCN1C(=O)CNC(=O)[C@H](Cc1ccccc1)NC(=O)[C@H](CC(N)=O)NC(=O)[C@H](CC(N)=O)NC(=O)[C@H](CO)NC(=O)[C@H](CO)NC(=O)[C@H](Cc1c[nH]cn1)NC(=O)[C@H](Cc1c[nH]cn1)NC(=O)[C@H](CC(C)C)NC(=O)[C@H](Cc1ccccc1)NC(=O)[C@H](CCC(=O)O)NC(=O)[C@H](C)NC(=O)[C@H](CC(C)C)NC(=O)[C@H](CCCNC(=N)N)NC(=O)[C@H](CCC(N)=O)NC(=O)[C@@H](NC(=O)[C@H](C)NC(=O)[C@@H]1CSSC[C@H](NC(=O)CC[C@H](NC(=O)CCCCCCCCCCCCCCCCCCC(=O)O)C(=O)O)C(=O)N[C@@H](CC(N)=O)C(=O)N[C@@H]([C@@H](C)O)C(=O)N[C@@H](C)C(=O)N[C@@H]([C@@H](C)O)C(=O)N1)[C@@H](C)O)C(=O)N[C@@H](CC(C)C)C(=O)N1CCC[C@H]1C(=O)N1CCC[C@H]1C(=O)N[C@H](C(=O)N[C@@H](CC(N)=O)C(=O)N[C@H](C(=O)NCC(=O)N[C@@H](CO)C(=O)N[C@@H](CC(N)=O)C(=O)N[C@H](C(=O)N[C@@H](Cc1ccc(O)cc1)C(N)=O)[C@@H](C)O)C(C)C)[C@@H](C)O [Example 28, N-alpha-[(S)-4-Carboxy-4-(19-carboxynonadecanoylamino)butyryl]-[des1,Glu14,His17]-pramlintide] ({C20 diacid-γGlu}-CNTATCATQRLAEFLHHSSNNFGPILPPTNVGSNTY-NH2; disulfide 1-6 (inferred))",39,36,,,9.3,,
"CC[C@H](C)[C@H](NC(=O)[C@@H]1CCCN1C(=O)CNC(=O)[C@H](Cc1ccccc1)NC(=O)[C@H](CC(N)=O)NC(=O)[C@H](CC(N)=O)NC(=O)[C@H](CO)NC(=O)[C@H](CO)NC(=O)[C@H](CCCNC(=N)N)NC(=O)[C@@H](NC(=O)[C@H](CC(C)C)NC(=O)[C@H](Cc1ccccc1)NC(=O)[C@H](CCC(=O)O)NC(=O)[C@H](C)NC(=O)[C@H](CC(C)C)NC(=O)[C@H](CCCNC(=N)N)NC(=O)[C@H](CCC(N)=O)NC(=O)[C@@H](NC(=O)[C@H](C)NC(=O)[C@@H]1CSSC[C@H](NC(=O)[C@H](Cc2c[nH]cn2)NC(=O)CC[C@H](NC(=O)CCCCCCCCCCCCCCCCCCC(=O)O)C(=O)O)C(=O)N[C@@H](CC(N)=O)C(=O)N[C@@H]([C@@H](C)O)C(=O)N[C@@H](C)C(=O)N[C@@H]([C@@H](C)O)C(=O)N1)[C@@H](C)O)C(C)C)C(=O)N[C@@H](CC(C)C)C(=O)N1CCC[C@H]1C(=O)N1CCC[C@H]1C(=O)N[C@H](C(=O)N[C@@H](CC(N)=O)C(=O)N[C@H](C(=O)NCC(=O)N[C@@H](CO)C(=O)N[C@@H](CC(N)=O)C(=O)N[C@H](C(=O)N[C@@H](Cc1ccc(O)cc1)C(N)=O)[C@@H](C)O)C(C)C)[C@@H](C)O [Example 15, N-alpha-[(S)-4-Carboxy-4-(19-carboxynonadecanoylamino)butyryl]-[His1,Glu14,Arg18]-pramlintide] ({C20 diacid-γGlu}-HCNTATCATQRLAEFLVRSSNNFGPILPPTNVGSNTY-NH2; disulfide 2-7 (inferred); C-terminus assumed)",56,59,,,4.7,,

# From patent US8722849B2, “Polypeptides” (Novo Nordisk A/S, priority 2011, dated 2014)
